Results published in patent US7070796B1 (Debiopharm S.A., priority 1999, dated 2006).

Legend:
Staphylococcus aureus = assay: Efficacy of the antimicrobial conservation (European Pharmacopea 5.1.3); assay type: cell-based; conditions: oxaliplatinum in solution, test of artificial contamination recommended by the Pharmacopea
Protocol: Under these conditions, the obtained results have shown a definite reduction of the staphylococcus aureus population with a Δlog of 5,99 after 24 hours.

[1] = Solvent optimization above 10 mg/ml, visual observation, with temperature variations; assay type: physicochemical; conditions: for visual aspect of mixture: aqueous, ad 25 ml
Protocol: First it has been carried to 60° C. and maintained at this temperature under agitation during one hour. […] It was then submitted to three successive freezing with, in the interval, return to the room temperature. This solution has then staid seven days in a fridge.

[2] = aqueous medium
Text: Some of these tests will appear in the examples as comparatives.

For N[C@@H]1CCCC[C@H]1N.O=C([O-])C(=O)[O-].[Pt+2] [oxaliplatinum], which “antimicrobial efficacy in words” value (Staphylococcus aureus) is on record?
Its value is “antimicrobial efficacy”.

What about the “visual aspect of mixture” value ([1]; 400 mg oxaliplatinum and 12,5 g maltitol) of the same compound?
The value was “residues appear”.

What about the “visual aspect of solution” value ([1]; 337,5 mg oxaliplatinum and 5 g maltitol ad 25 ml, 60° C. under agitation during one hour) of the same compound?
The value was “clear and colorless”.

And the crystal formation ([1]; 337,5 mg oxaliplatinum and 5 g maltitol ad 25 ml, three successive freezing, then seven days in a fridge, return to room temperature)?
Its crystal formation is “no crystal has been observed”.

And the “visual aspect of mixture” value ([1]; 337,5 mg oxaliplatinum and 5 g maltitol)?
The value was “clear”.

And the dissolution in words ([1]; 379,7 mg oxaliplatinum in 25 ml glycerol to 85%)?
Its dissolution in words is “partly dissolve”.

For Tween 20, which “effect of the substance, mixed with or solubilised in water, on oxaliplatinum solubility” value [2] is on record?
Its value is “ineffective”.
